What was measured:
[1] = AA5225_IC50_IP (Table 4, assay code not explained); conditions: internal assay code
[2] = AA2734_IC50_IP (Table 4, assay code not explained); conditions: internal assay code

Row | Compound | IC50 [1] [nM] | IC50 [2] [nM]
1 | Cc1ccc(C(=O)NC2CC2)cc1-c1ccc2c(C3(C(F)(F)F)CC3)nncc2c1 [Example 225, N-cyclopropyl-4-methyl-3-(1-(1-(trifluoromethyl)cyclopropyl)-6-phthalazinyl)benzamide] | 0.968 | 0.148
2 | Cc1ccc(C(=O)Nc2ccnn2C)cc1-c1ccc2c(C3(C(F)(F)F)CC3)nncc2c1 [Example 226, 4-methyl-N-(1-methyl-1H-pyrazol-5-yl)-3-(1-(1-(trifluoromethyl)cyclopropyl)-6-phthalazinyl)benzamide] | 1.12 | 0.173
3 | Cc1ccc(C(=O)NC2CC2)cc1-c1ccc2c(-c3ccc(S(=O)(=O)C(F)(F)F)cc3C)nncc2c1 [Example 233, N-cyclopropyl-4-methyl-3-(1-(2-methyl-4-((trifluoromethyl)sulfonyl)phenyl)-6-phthalazinyl)benzamide] | 0.62 | 2.89
4 | Cc1ccc(C(=O)Nc2ccnn2C)cc1-c1ccc2c(C(C)(O)C(F)(F)F)nncc2c1 (stereo not drawn) [Example 243, 4-methyl-N-(1-methyl-1H-pyrazol-5-yl)-3-(1-(2,2,2-trifluoro-1-hydroxy-1-methylethyl)-6-phthalazinyl)benzamide] | 1.33 | –
5 | Cc1ccc(C(=O)O)cc1-c1ccc2c(C(C)(C)O)nncc2c1 [Example 247, 3-(1-(1-hydroxy-1-methylethyl)-6-phthalazinyl)-4-methylbenzoic acid] | 1000 | –
6 | Cc1ccc(C(=O)NC2CC2)cc1-c1ccc2c(C(C)(C)O)nncc2c1 [Example 248, N-cyclopropyl-3-(1-(1-hydroxy-1-methylethyl)-6-phthalazinyl)-4-methylbenzamide] | 0.812 | 0.826
7 | Cc1ccc(C(=O)Nc2ccnn2C)cc1-c1ccc2c(C(C)(C)F)nncc2c1 [Example 249, 3-(1-(1-fluoro-1-methylethyl)-6-phthalazinyl)-4-methyl-N-(1-methyl-1H-pyrazol-5-yl)benzamide] | 1.14 | 0.334

Further lines, results first:

Row | IC50 [1] [nM] | IC50 [2] [nM] | Compound
8 | 1.08 | 0.455 | Cc1ccc(C(=O)NC2CC2)cc1-c1ccc2c([C@@H](C)C(F)(F)F)nncc2c1 [Example 227a, N-cyclopropyl-4-methyl-3-(1-((1R)-2,2,2-trifluoro-1-methylethyl)-6-phthalazinyl)benzamide]
9 | 0.599 | 0.383 | Cc1ccc(C(=O)NC2CC2)cc1-c1ccc2c([C@@](C)(O)C(F)(F)F)nncc2c1 [Example 229, N-cyclopropyl-4-methyl-3-(1-((1R)-2,2,2-trifluoro-1-hydroxy-1-methylethyl)-6-phthalazinyl)benzamide]
10 | 0.643 | 0.364 | Cc1ccc(C(=O)NC2CC2)cc1-c1ccc2c([C@](C)(O)C(F)(F)F)nncc2c1 [Example 230, N-cyclopropyl-4-methyl-3-(1-((1S)-2,2,2-trifluoro-1-hydroxy-1-methylethyl)-6-phthalazinyl)benzamide]
11 | 80.8 | 33.3 | Cc1ccc(C#N)cc1-c1ccc2c(O[C@H](C)C(F)(F)F)nncc2c1 [Example 231, 4-methyl-3-(1-(((1R)-2,2,2-trifluoro-1-methylethyl)oxy)-6-phthalazinyl)benzonitrile]
12 | 1.33 | – | Cc1ccc(C#N)cc1-c1ccc2c(O)nncc2c1 [Example 232, 3-(1-hydroxy-6-phthalazinyl)-4-methylbenzonitrile]
13 | 0.952 | 0.434 | Cc1ccc(C(=O)NC2CC2)cc1-c1ccc2c(C(C)(O)C(F)(F)F)nncc2c1 (stereo not drawn) [Example 244, N-cyclopropyl-4-methyl-3-(1-(2,2,2-trifluoro-1-hydroxy-1-methylethyl)-6-phthalazinyl)benzamide]
14 | – | 1.75 | CNC(=O)c1ccc(C)c(-c2ccc3c(O[C@@H](C)C(F)(F)F)nncc3c2)c1 [Example 258, N,4-dimethyl-3-(1-(((1S)-2,2,2-trifluoro-1-methylethyl)oxy)-6-phthalazinyl)benzamide]
